Data reported in ChEMBL document CHEMBL1126467, “Discovery of dual activity molecules with thromboxane antagonist and thromboxane synthase inhibitory activity” (Bioorg Med Chem Lett, 1992).

What was measured:
Thromboxane-A synthase [1] = target: T1, Thromboxane-A synthase (Homo sapiens, UniProt P24557); test: Human microsomal Thromboxane synthase inhibition was determined by inhibiting TXB2 formation from [14C]- labelled arachidonic acid; Not active
T1 sequence (P24557 whole entry): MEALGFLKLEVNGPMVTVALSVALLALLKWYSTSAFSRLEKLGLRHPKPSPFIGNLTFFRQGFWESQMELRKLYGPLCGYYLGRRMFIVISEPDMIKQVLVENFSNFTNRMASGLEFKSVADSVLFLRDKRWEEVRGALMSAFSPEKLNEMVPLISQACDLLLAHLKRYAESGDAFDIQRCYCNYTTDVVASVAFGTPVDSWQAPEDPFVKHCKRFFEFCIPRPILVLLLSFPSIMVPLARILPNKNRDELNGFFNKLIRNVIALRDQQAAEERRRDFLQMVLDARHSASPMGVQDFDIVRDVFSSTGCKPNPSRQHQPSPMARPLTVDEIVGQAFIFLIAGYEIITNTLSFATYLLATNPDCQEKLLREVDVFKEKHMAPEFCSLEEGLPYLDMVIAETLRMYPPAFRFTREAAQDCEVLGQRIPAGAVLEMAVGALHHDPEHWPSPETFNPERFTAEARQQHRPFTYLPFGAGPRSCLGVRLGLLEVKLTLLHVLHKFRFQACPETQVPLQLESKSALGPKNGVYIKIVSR

Thromboxane A2 receptor = target: T2, Thromboxane A2 receptor (Homo sapiens, UniProt P21731); test: Tested for thromboxane antagonist potency (pA2) against […] induced platelet aggregation using human platelet rich plasma; format: functional, cell-free; settings: read-out: pA2 (converted)
T2 sequence (P21731 whole entry): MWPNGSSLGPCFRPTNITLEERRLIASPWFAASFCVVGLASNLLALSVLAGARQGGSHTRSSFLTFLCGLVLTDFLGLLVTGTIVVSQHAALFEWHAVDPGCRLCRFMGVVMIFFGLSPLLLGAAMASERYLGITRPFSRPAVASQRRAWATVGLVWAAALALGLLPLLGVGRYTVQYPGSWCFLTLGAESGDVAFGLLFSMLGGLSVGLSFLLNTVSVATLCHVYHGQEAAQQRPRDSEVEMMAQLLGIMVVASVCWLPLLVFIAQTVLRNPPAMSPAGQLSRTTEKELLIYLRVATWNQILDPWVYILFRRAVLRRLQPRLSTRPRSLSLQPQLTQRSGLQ

Thromboxane-A synthase [2] = target: T1, Thromboxane-A synthase; test: Human microsomal Thromboxane synthase inhibition was determined by inhibiting TXB2 formation from [14C]- labelled arachidonic acid
[3] = target: T3, Thromboxane A2 receptor (Rattus norvegicus) (UniProt P34978); test: Compound was tested for in vivo inhibition of thromboxane A2 receptor inhibition 1 hr after administration of 10 mg/kg orally to rat; format: organism-based; set-up: dose 10 mg/kg; settings: at 10 mg/kg
T3 sequence (whole entry): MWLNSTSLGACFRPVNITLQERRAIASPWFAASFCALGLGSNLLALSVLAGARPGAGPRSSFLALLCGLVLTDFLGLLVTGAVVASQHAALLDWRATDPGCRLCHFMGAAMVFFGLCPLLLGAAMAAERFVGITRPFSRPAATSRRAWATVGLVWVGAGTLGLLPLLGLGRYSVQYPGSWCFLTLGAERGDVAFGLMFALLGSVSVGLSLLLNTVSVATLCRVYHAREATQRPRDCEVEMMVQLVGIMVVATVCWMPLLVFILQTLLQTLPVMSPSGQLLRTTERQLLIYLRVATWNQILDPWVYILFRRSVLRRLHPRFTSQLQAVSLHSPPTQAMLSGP

[4] = target: T3, Thromboxane A2 receptor (Rattus norvegicus); test: Compound was tested for in vivo inhibition of thromboxane-A2 receptor inhibition 5 hr after administration of 10 mg/kg orally to rat; format: organism-based; set-up: dose 10 mg/kg; settings: at 10 mg/kg
[5] = target: T3, Thromboxane A2 receptor (Rattus norvegicus); test: Compound was tested for in vivo inhibition of thromboxane-A2 receptor inhibition 3 hr after administration of 10 mg/kg orally to rat; format: organism-based; set-up: dose 10 mg/kg; settings: at 10 mg/kg

| SMILES | IC50 (Thromboxane-A synthase [1]) | Kb (Thromboxane A2 receptor) [nM] | IC50 (Thromboxane-A synthase [2]) [nM] | inhibition [3] [%] | inhibition [4] [%] | inhibition [5] [%] |
| --- | --- | --- | --- | --- | --- | --- |
| O=C(O)CC1CCCc2c1n(Cc1cccnc1)c1ccc(F)cc21 (stereo not drawn) | Not Active | 3160 |  |  |  |  |
| O=C(O)CC1CCCc2c1n(Cc1cccc(OCCCCC#Cc3cccnc3)c1)c1ccc(F)cc21 (stereo not drawn) |  | 2510 | 40 |  |  |  |
| O=C(O)CC1CCCc2c1n(Cc1cccc(CCCCCc3cccnc3)c1)c1ccc(F)cc21 (stereo not drawn) |  | 3980 | 500 |  |  |  |
| O=C(O)CC1CCCc2c1n(Cc1ccc(OCCCC#Cc3cccnc3)cc1)c1ccc(F)cc21 (stereo not drawn) |  | 158 | 600 |  |  |  |
| O=C(O)CC1CCCc2c1n(Cc1ccc(Cl)cc1)c1ccc(F)cc21 (stereo not drawn) | Not Active | 79.4 |  |  |  |  |
| O=C(O)CC1CCCc2c1n(Cc1cccc(OCCCC#Cc3cccnc3)c1)c1ccc(F)cc21 (stereo not drawn) |  | 1000 | 50 | 86 | 71 | 77 |
| O=C(O)CC1CCCc2c1n(Cc1cccc(OCCCCc3cccnc3)c1)c1ccc(F)cc21 (stereo not drawn) |  | 501 | 100 |  |  |  |
| O=C(O)CC1CCCc2c1n(Cc1cccc(OCCCCCc3cccnc3)c1)c1ccc(F)cc21 (stereo not drawn) |  | 3160 | 300 |  |  |  |
| O=C(O)CC1CCCc2c1n(Cc1cccc(OCCC/C=C\c3cccnc3)c1)c1ccc(F)cc21 (stereo not drawn) |  | 631 | 200 |  |  |  |
| O=C(O)CC1CCCc2c1n(Cc1ccc(OCCCCC#Cc3cccnc3)cc1)c1ccc(F)cc21 (stereo not drawn) |  | 200 | 400 |  |  |  |
